For one experiment, the target named is T1, CaV2.2 (Homo sapiens, UniProt Q00975).
T1 construct: expressed in transfected cells; host or cells: HEK293
Nature of the experiment: VIPR optical membrane potential assay with electrical stimulation, CaV2.2. It is filed as cell-based. The settings on record: Table 9, CaV 2.2 receptors. As to the method:
A. Optical Methods for Assaying CaV Inhibition Properties of Compounds:
(§1) Antagonist properties of test compounds were assessed as follows. Cells expressing the CaV of interest were placed into microtiter plates. After an incubation period, the cells were stained with fluorescent dyes sensitive to the transmembrane potential. The test compounds were added to the microtiter plate. The cells were stimulated with electrical means to evoke a CaV dependent membrane potential change from unblocked channels, which was detected and measured with trans-membrane potential-sensitive dyes. Antagonists were detected as a decreased membrane potential response to the stimulus.
(§2) VIPR® Optical Membrane Potential Assay Method with Electrical Stimulation
The following is an example of how CaV2.2 inhibition activity is measured using the optical membrane potential method. Other subtypes are performed in an analogous mode in a cell line expressing the CaV of interest.
HEK293 cells stably expressing CaV2.2 are plated into 96-well microtiter plates. After an appropriate incubation period, the cells are stained with the voltage sensitive dyes CC2-DMPE/DiSBAC2(3) as follows.
2X CC2-DMPE=20 μM CC2-DMPE: 10 mM CC2-DMPE is vortexed with an equivalent volume of 10% Pluronic, followed by vortexing in required amount of HBSS containing 10 mM HEPES. Each cell plate will require 5 mL of 2×CC2-DMPE. 50 μL of 2×CC2-DMPE is added to wells containing washed cells, resulting in a 10 μM final staining concentration. The cells are stained for 30 minutes in the dark at RT.
Vortex in required amount of Bath X with beta-cyclodextrin. Each 96 well cell plate will require 5 ml of 2XCC2DMPE. Wash plate with ELx405 with Bath X, leaving a residual volume of 50 μL/well. Add 50 μL of 2XCC2DMPE & […] to each well. Stain for 30 minutes in the dark at RT.
Allow solution to sit for 10 minutes. Slowly mix in 370 mM BaCl2. This solution can be used to solvate compound plates. Note that compound plates are made at 1.5× drug concentration and not the usual 2X. Wash CC2 stained plate, again, leaving residual volume of 50 μL. Add 100 uL/well of the AY17 solution. Stain for 15 minutes in the dark at RT. Run plate on the optical reader.
(§3) The instrument comprises a microtiter plate handler, an optical system for exciting the coumarin dye while simultaneously recording the coumarin and oxonol emissions, a waveform generator, a current- or voltage-controlled amplifier, and a device for inserting electrodes in well. Under integrated computer control, this instrument passes user-programmed electrical stimulus protocols to cells within the wells of the microtiter plate.
Insert or use electrodes into each well to be assayed.
Use the current-controlled amplifier to deliver stimulation wave pulses for 3-5 s. Two seconds of pre-stimulus recording are performed to obtain the un-stimulated intensities. Five seconds of post-stimulation recording are performed to examine the relaxation to the resting state.
(§4) Data are analyzed and reported as normalized ratios of background-subtracted emission intensities measured in the 460 nm and 580 nm channels. Background intensities are then subtracted from each assay channel. Background intensities are obtained by measuring the emission intensities during the same time periods from identically treated assay wells in which there are no cells. The response as a function of time is then reported as the ratios obtained using the following formula: […]
(§5) The data is further reduced by calculating the initial (Ri) and final (Rf) ratios. These are the average ratio values during part or all of the pre-stimulation period, and during sample points during the stimulation period. The response to the stimulus R=Rf/Ri is then calculated.
Control responses are obtained by performing assays in the presence of a compound with the desired properties (positive control), such as mibefradil, and in the absence of pharmacological agents (negative control).

A further experiment concerns the target T2, NaV1.3 (Homo sapiens, UniProt Q9NY46).
T2 construct: expressed in transfected cells; host or cells: HEK293
Nature of the experiment: VIPR optical membrane potential assay with electrical stimulation, NaV1.3. The settings on record: Table 9, NaV 1.3 receptors. It is filed as cell-based. As to the method:
as §1, with “expressing the NaV of interest” for “expressing the CaV of interest”, “stimulated with either chemical or electrical means” for “stimulated with electrical means”, “evoke a NaV dependent membrane” for “evoke a CaV dependent membrane”
as §2
The following is an example of how NaV1.3 inhibition activity is measured using the optical membrane potential method#2. Other subtypes are performed in an analogous mode in a cell line expressing the NaV of interest.
HEK293 cells stably expressing NaV1.3 are plated into 96-well microtiter plates. After an appropriate incubation period, the cells are stained with the voltage sensitive dyes CC2-DMPE/DiSBAC2(3) as follows.
2X CC2-DMPE=20 μM CC2-DMPE: 10 mM CC2-DMPE is vortexed with an equivalent volume of 10% pluronic, followed by vortexing in required amount of HBSS containing 10 mM HEPES. Each cell plate will require 5 mL of 2×CC2-DMPE. 50 μL of 2×CC2-DMPE is added to wells containing washed cells, resulting in a 10 μM final staining concentration. The cells are stained for 30 minutes in the dark at RT.
2X DISBAC2(3) with ABSC1=6 μM DISBAC2(3) and 1 mM ABSC1: The required amount of 10 mM DISBAC2(3) is added to a 50 ml conical tube and mixed with 1 μL 10% pluronic for each mL of solution to be made and vortexed together. Then HBSS/HEPES is added to make up 2× solution. Finally, the ABSC1 is added.
The 2X DiSBAC2(3) solution can be used to solvate compound plates. Note that compound plates are made at 2× drug concentration. Wash stained plate again, leaving residual volume of 50 Add 50 μL/well of the 2X DiSBAC2(3) w/ABSC1. Stain for 30 minutes in the dark at RT.
as §3
• 1. Insert or use electrodes into each well to be assayed. • 2. Use the current-controlled amplifier to deliver stimulation wave pulses for 3 s. Two seconds of pre-stimulus recording are performed to obtain the un-stimulated intensities. Five seconds of post-stimulation recording are performed to examine the relaxation to the resting state. Data Analysis
as §4, §5
Control responses are obtained by performing assays in the presence of a compound with the desired properties (positive control), such as tetracaine, and in the absence of pharmacological agents (negative control). Responses to the negative (N) and positive (P) controls are calculated as above. The compound antagonist activity A is defined as: […]

This note sets out measurements from patent US8546414B2, “Ion channel modulators and methods of use” (Vertex Pharmaceuticals Incorporated, priority 2004, dated 2013).

T2 sequence (Q9NY46 whole entry): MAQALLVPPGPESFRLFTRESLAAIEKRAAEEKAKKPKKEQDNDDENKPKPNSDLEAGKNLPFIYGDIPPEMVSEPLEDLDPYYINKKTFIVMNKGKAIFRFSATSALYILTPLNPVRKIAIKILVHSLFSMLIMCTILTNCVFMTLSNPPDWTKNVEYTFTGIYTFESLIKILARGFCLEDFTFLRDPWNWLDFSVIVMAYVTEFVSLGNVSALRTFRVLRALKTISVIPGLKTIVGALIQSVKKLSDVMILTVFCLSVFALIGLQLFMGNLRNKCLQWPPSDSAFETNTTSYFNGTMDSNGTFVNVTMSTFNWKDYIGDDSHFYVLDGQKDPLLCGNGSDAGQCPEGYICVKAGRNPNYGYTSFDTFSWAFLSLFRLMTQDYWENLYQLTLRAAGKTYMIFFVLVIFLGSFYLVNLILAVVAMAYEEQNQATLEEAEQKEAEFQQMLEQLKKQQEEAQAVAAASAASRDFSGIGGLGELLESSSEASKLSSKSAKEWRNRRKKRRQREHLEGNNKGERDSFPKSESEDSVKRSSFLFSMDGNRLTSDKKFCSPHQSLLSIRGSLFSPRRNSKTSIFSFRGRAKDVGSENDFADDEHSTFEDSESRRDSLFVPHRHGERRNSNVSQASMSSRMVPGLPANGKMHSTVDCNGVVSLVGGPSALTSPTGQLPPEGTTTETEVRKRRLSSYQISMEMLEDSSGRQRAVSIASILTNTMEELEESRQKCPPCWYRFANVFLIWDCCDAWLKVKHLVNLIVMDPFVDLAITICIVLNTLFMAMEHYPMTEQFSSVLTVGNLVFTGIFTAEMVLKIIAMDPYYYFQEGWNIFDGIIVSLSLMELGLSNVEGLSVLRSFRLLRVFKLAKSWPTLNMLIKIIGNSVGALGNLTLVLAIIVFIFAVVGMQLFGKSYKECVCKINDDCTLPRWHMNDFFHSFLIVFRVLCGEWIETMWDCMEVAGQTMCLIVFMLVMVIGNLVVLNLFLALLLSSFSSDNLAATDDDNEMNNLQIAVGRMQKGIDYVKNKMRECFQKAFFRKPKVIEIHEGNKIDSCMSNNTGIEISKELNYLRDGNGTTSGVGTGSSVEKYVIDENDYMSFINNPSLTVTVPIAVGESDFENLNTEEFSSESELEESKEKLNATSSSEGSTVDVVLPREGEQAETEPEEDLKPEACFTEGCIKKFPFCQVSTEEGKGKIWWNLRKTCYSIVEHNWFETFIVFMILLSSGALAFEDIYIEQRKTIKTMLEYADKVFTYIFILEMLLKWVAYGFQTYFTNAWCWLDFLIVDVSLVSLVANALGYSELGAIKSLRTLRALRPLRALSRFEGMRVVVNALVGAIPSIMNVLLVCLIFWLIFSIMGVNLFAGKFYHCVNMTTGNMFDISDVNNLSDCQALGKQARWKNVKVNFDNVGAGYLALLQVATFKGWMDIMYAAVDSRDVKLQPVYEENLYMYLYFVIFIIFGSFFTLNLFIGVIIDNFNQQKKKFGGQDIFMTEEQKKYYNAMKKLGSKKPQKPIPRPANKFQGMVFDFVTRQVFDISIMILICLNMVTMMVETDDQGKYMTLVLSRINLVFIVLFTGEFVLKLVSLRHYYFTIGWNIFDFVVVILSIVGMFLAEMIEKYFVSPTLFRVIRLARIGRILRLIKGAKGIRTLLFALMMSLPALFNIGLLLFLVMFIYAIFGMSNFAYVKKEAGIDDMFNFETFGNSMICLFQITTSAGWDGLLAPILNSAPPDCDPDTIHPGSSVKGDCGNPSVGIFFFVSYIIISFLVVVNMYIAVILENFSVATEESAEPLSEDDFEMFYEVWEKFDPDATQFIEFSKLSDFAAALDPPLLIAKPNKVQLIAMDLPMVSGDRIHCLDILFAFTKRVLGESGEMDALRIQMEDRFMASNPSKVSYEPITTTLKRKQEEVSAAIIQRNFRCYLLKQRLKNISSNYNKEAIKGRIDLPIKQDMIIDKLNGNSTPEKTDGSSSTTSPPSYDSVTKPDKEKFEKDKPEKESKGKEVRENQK

By IC50 is commonly meant the concentration that inhibits the measured activity by half. Low values mean inhibition by little substance, high ones a need for much substance. For `N#Cc1ccc(-c2nc(NCc3ccccc3C(F)(F)F)ncc2C(=O)NCC2CC2)cc1` [compound 248], the concentration for half-maximal inhibition (IC50) at CaV2.2 and against NaV1.3 was over 10 µM in each case.

Turning to `CC(=O)NCCNc1ncc(C(=O)N2CCC(C)CC2)c(-c2ccc(-c3ccccc3)cc2)n1` [compound 251], the IC50 at CaV2.2 is 2 to 10 µM; against NaV1.3, over 10 µM.

In the case of `O=C(c1cnc(NCc2ccccc2C(F)(F)F)nc1-c1ccccc1F)N1CCOCC1` [compound 252], the IC50 against CaV2.2 and against NaV1.3 was over 10 µM throughout.

`CCC(C)Nc1ncc(C(=O)NC2CCCCC2C)c(-c2ccccc2F)n1` (centres unmarked) [compound 253]: the IC50 on CaV2.2 and at NaV1.3 was over 10 µM each time.

Consider `COc1cccc(OC)c1CNc1ncc(C(=O)N(C)CC(C)C)c(-c2ccccc2F)n1` [compound 255], for which the IC50 at CaV2.2 and on NaV1.3 was over 10 µM in each case.

With `COCCNc1ncc(C(=O)N(C)C2CCCCC2)c(-c2ccc(C#N)cc2)n1` [compound 256], the IC50 at CaV2.2 and against NaV1.3 was over 10 µM throughout.

Turning to `COCCCNC(=O)c1cnc(NCC2CC2)nc1-c1cccc(C)c1` [compound 257], the IC50 on CaV2.2 and at NaV1.3 was over 10 µM in each case.

Turning to `COCCCNC(=O)c1cnc(NCCc2ccc(OC)cc2)nc1-c1cccc(C)c1` [compound 258], the half-maximal inhibitory concentration (IC50) on CaV2.2 and against NaV1.3 was over 10 µM each time.

`CCN(Cc1ccccc1)C(=O)c1cnc(N2CCCC(C(N)=O)C2)nc1-c1ccc(C#N)cc1` (centres unmarked) [compound 259]: the IC50 against CaV2.2 and against NaV1.3 was over 10 µM in each case.

Regarding `N#Cc1ccc(-c2nc(NCc3ccc4c(c3)OCO4)ncc2C(=O)N2CCCC2)cc1` [compound 260], the IC50 against CaV2.2 and against NaV1.3 was over 10 µM throughout.

On to `Cc1ccc(CNc2ncc(C(=O)N3CCC(C)CC3)c(-c3ccc(C#N)cc3)n2)o1` [compound 261], for which the IC50 against CaV2.2 and against NaV1.3 was over 10 µM in each case.

Turning to `CCCCNc1ncc(C(=O)N(C)CC(C)C)c(-c2cccc(C)c2)n1` [compound 262], the IC50 on CaV2.2 and against NaV1.3 was over 10 µM throughout.

As for `CC(C)CN(C)C(=O)c1cnc(NCc2ccc3c(c2)OCO3)nc1-c1ccc(C#N)cc1` [compound 263], the 50% inhibitory concentration (IC50) is 2 to 10 µM against CaV2.2 and over 10 µM against NaV1.3.

As for `Cc1cccc(-c2nc(NCc3ccc4c(c3)OCO4)ncc2C(=O)N2CCOCC2)c1` [compound 264], the IC50 against CaV2.2 and at NaV1.3 was over 10 µM each time.

Take `CCN(Cc1cccc(C)c1)C(=O)c1cnc(NCCCOC)nc1-c1ccc(C#N)cc1` [compound 265]: the half-inhibitory concentration (IC50) at CaV2.2 and on NaV1.3 was over 10 µM each time.

Consider `CCN(Cc1cccc(C)c1)C(=O)c1cnc(N2CCOCC2)nc1-c1cccc(C)c1` [compound 266], for which the IC50 at CaV2.2 and against NaV1.3 was over 10 µM each time.

Turning to `CC(=O)N1CCN(c2ncc(C(=O)N3CCCCC3)c(-c3ccc(C#N)cc3)n2)CC1` [compound 267], the IC50 at CaV2.2 and on NaV1.3 was over 10 µM each time.

Take `CCN(Cc1cccc(C)c1)C(=O)c1cnc(NCCCOC)nc1-c1ccccc1F` [compound 268]: the IC50 against CaV2.2 and against NaV1.3 was over 10 µM in each case.

Regarding `CCN(Cc1ccccc1)C(=O)c1cnc(NCc2ccc3c(c2)OCO3)nc1-c1ccc(C#N)cc1` [compound 269], the IC50 at CaV2.2 and at NaV1.3 was over 10 µM throughout.

`CC(C)CN(C)C(=O)c1cnc(N2CCCC2)nc1-c1ccccc1F` [compound 270]: the IC50 against CaV2.2 and at NaV1.3 was over 10 µM throughout.

As to `COc1ccc(CCN(C)c2ncc(C(=O)N(C)CC(C)C)c(-c3ccc(C#N)cc3)n2)cc1OC` [compound 271], the IC50 on CaV2.2 and at NaV1.3 was over 10 µM throughout.

For `COc1ccccc1CCNC(=O)c1cnc(N2CCCC2)nc1-c1cccc(C)c1` [compound 272], the IC50 against CaV2.2 and against NaV1.3 was over 10 µM in each case.

`CCC(C)Nc1ncc(C(=O)N(C)CC)c(-c2cccc(C)c2)n1` (centres unmarked) [compound 273]: the IC50 against CaV2.2 and on NaV1.3 was over 10 µM in each case.

With `COCCCNc1ncc(C(=O)N2CCCCC2)c(-c2cccc(C)c2)n1` [compound 274], the IC50 on CaV2.2 and against NaV1.3 was over 10 µM throughout.

On to `COCCNc1ncc(C(=O)N(C)C2CCCCC2)c(-c2ccccc2F)n1` [compound 276], for which the half-maximal inhibitory concentration (IC50) at CaV2.2 and on NaV1.3 was over 10 µM throughout.

Consider `CC(C)N(Cc1ccccc1)C(=O)c1cnc(NCC2CC2)nc1-c1ccccc1F` [compound 277], for which the IC50 at CaV2.2 is 2 to 10 µM; at NaV1.3, over 10 µM.

For `CC1CC(C)CN(C(=O)c2cnc(N3CCOCC3)nc2-c2ccccc2F)C1` (centres unmarked) [compound 279], the IC50 against CaV2.2 and on NaV1.3 was over 10 µM each time.

For the compound `COc1cccc(OC)c1CNc1ncc(C(=O)N(C)C2CCCCC2)c(-c2ccc(C#N)cc2)n1` [compound 280], the IC50 on CaV2.2 and on NaV1.3 was over 10 µM in each case.

For `CC(=O)NCCNC(=O)c1cnc(N2CCCC2)nc1-c1ccc(-c2ccccc2)cc1` [compound 281], the IC50 at CaV2.2 and against NaV1.3 was over 10 µM in each case.

With `CCC1CCC(C)N(C(=O)c2cnc(N(C)CC)nc2-c2ccccc2F)C1` (centres unmarked) [compound 282], the results for the IC50 against CaV2.2 and against NaV1.3 were 2 to 10 µM and over 10 µM, respectively.

Regarding `CCN(C)C(=O)c1cnc(N2CCCC(C(N)=O)C2)nc1-c1ccc(C#N)cc1` (centres unmarked) [compound 284], the half-inhibitory concentration (IC50) against CaV2.2 and at NaV1.3 was over 10 µM each time.

`COc1ccc(CCN(C)c2ncc(C(=O)N3CC(C)CC(C)C3)c(-c3ccc(C#N)cc3)n2)cc1OC` (centres unmarked) [compound 285]: the IC50 at CaV2.2 and at NaV1.3 was over 10 µM in each case.

For the compound `CC1CCCCC1NC(=O)c1cnc(N2CCCC(C(N)=O)C2)nc1-c1ccc(C#N)cc1` (centres unmarked) [compound 286], the IC50 on CaV2.2 and on NaV1.3 was over 10 µM in each case.

On to `Cc1cccc(-c2nc(NC3CC4CC(C3C)C4(C)C)ncc2C(=O)N2CCOCC2)c1` (centres unmarked) [compound 288], for which the IC50 on CaV2.2 and on NaV1.3 was over 10 µM in each case.
